Experimental data taken from patent publication US5962275A, “Method for the enzymatic galactosylation of monosaccharides and oligosaccharides” (Hoechst Aktiengesellschaft, priority 1995, dated 1999).
“Also recorded” adds a separate entry of the source. Where two headings read alike, the source gives them in different places. Values belong to the compound of their own block, whether it stands above or below them.

Experiments:
Assay type in all cases: biochemical
UDP-glucose 4'-epimerase [1] = biological target: T1, UDP-glucose 4'-epimerase (Saccharomyces cerevisiae, UniProt P04397); assay: Stability (rel. activity) of the epimerase in the presence of various donors and acceptors of GalT; conditions: for inactivation of the epimerase (in words): donors and acceptors of GalT, acceptors in the presence of UMP
Procedure: 893 μl of 100 mM glycine buffer, pH 8.8
In order to examine the thesis that the inactivation of the epimerase can occur in association with many applications, the stability of the epimerase was tested in the presence of various donors and acceptors of GalT.
P: 200 mM HepesNaOH, pH 7.2, 1 mM DTT, 1 mg/ml BSA, 25 mM KCl containing
R: Activity following reactivation of the epimerase with
dTDP6-deoxy-D-xylo-4-hexulose (c = 0.1 mM)

UDP-glucose 4'-epimerase [2] = biological target: T1, UDP-glucose 4'-epimerase; assay: Reactivation of the inactivated epimerase with activator; conditions: for time after which renewed inactivation of the epimerase is observed: activator 0.1 mM, galactose and UMP still present in the mixture
Procedure: Both dUDP-6-deoxy-D-xylo-4-hexulose and dTDP-6-deoxy-D-xylo-4-hexulose, and also 6-deoxyglucosone, galactosone, allosone and glucosone, were used for reactivating the epimerase.
2. Inactivation of the epimerase
1 mg/ml bovine serum albumin (BSA)
3. Activation of the epimerase
160 μl of inactivated epimerase
40 μl of activator (different concentrations)

UDP-glucose 4'-epimerase [3] = biological target: T1, UDP-glucose 4'-epimerase; assay: Inactivation of the epimerase by sugar in the presence of UMP; conditions: 500 mM sucrose, 0.1 mM UMP, Hepes pH 7.2, 30° C., 8 hours
Procedure: A: 200 mM Hepes pH 7.2, 1 mM DTT, 1 mg/ml BSA B: 200 mM Hepes pH 7.2, 1 mM DTT, 1 mg/ml BSA, 500 mM sucrose A. Buffer solution A B. Buffer solution A, 0.1 mM UMP C. Buffer solution B D. […] Incubation temperature: 30° C. Activity test: (Fukusawa et al., J. Biol. Chem. 255, 2705-2707 (1980)) | 893 μl of 100 mM glycine buffer, pH 8.8 | 20 μl of 5 mM UDP-Gal | 20 μl of 50 mM NAD […] |33.3 μl of epimerase Temperature: 25° C. Measurement at 340 nm

[4] = 2 h, pH 7.2, read-out: Rel. activity of the epimerase, incubation time 2h
[5] = 2 h, acceptor 50 mM, buffer P pH 7.2 containing 0.1 mM UMP, read-out: Rel. activity of the epimerase, incubation time 2h
[6] = acceptor 50 mM, buffer P pH 7.2 containing 0.1 mM UMP
[7] = inactivated epimerase plus activator, different concentrations

T1 sequence (P04397 whole entry): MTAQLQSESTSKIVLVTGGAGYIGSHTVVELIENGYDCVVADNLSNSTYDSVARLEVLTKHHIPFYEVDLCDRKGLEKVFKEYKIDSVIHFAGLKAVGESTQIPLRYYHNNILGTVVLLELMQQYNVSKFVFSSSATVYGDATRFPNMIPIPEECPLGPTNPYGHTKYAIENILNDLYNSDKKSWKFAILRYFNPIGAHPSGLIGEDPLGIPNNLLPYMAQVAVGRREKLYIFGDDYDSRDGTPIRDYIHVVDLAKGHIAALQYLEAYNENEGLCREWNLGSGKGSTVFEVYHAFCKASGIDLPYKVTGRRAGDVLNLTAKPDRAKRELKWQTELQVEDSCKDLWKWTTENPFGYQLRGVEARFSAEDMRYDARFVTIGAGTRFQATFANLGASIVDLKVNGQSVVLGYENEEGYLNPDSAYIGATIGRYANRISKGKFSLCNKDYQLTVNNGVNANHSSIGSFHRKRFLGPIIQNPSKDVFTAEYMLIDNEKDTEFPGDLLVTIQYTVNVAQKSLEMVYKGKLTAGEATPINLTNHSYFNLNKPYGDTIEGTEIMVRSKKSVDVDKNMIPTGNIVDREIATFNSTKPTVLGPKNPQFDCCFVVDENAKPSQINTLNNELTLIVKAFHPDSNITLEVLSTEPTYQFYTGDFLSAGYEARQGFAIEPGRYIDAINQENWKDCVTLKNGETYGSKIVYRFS

SMILES: OC[C@H]1OC(O)C[C@@H](O)[C@@H]1O (stereo partly drawn) [2-Deoxyglc, 2-deoxy-D-glucose]
activity at 50000 µM (UDP-glucose 4'-epimerase [1]; [4]): 20.7%
inactivation of the epimerase (in words) (UDP-glucose 4'-epimerase [1]): inactivated

SMILES: OC[C@H]1OC(O)[C@H](O)[C@@H](O)[C@@H]1O (stereo partly shown) [Glc, glucose]
activity at 50000 µM (UDP-glucose 4'-epimerase [1]; [4]): 15.8%
inactivation of the epimerase (in words) (UDP-glucose 4'-epimerase [1]): inactivated

SMILES: OC[C@H]1SC(O)[C@H](O)[C@@H](O)[C@@H]1O (stereo partly drawn) [Thioglc, 5-thio-D-glucose]
activity at 50000 µM (UDP-glucose 4'-epimerase [1]; [5]): 87.9%
Rel. activity of the epimerase, incubation time 7h (UDP-glucose 4'-epimerase [1]; [6]): 34.3
inactivation of the epimerase (in words) (UDP-glucose 4'-epimerase [1]): inactivated

SMILES: OC[C@H]1OC(O)[C@H](O)[C@@H](O)[C@H]1O (stereo partly shown) [galactose]
measured activity of the epimerase after inactivation (UDP-glucose 4'-epimerase [2]; 50 mM galactose, 0.1 mM UMP, 0.25 mg/ml epimerase, 2 h at 30° C.): 3%

The next lines start with results.

activity at 50000 µM (UDP-glucose 4'-epimerase [1]; [5]): 93.6%
Rel. activity of the epimerase, incubation time 7h (UDP-glucose 4'-epimerase [1]; [6]): 97.5
SMILES: CC(=O)N[C@H]1C(O)O[C@H](CO)[C@@H](O)[C@@H]1O (stereo partly shown) [GlcNAc, N-acetylglucosamine]

reactivation of the epimerase (in words) (UDP-glucose 4'-epimerase [2]): can be used to reactivate
time after which renewed inactivation of the epimerase is observed (UDP-glucose 4'-epimerase [2]): 32 h
activation of the epimerase (in words) (UDP-glucose 4'-epimerase [2]; [7]): rapid and long-lasting activation
SMILES: Cc1cn([C@H]2C[C@H](O)[C@@H](COP(=O)(O)OP(=O)(O)O[C@H]3O[C@H](C)C(=O)[C@H](O)[C@H]3O)O2)c(=O)[nH]c1=O [dTDP-6-deoxy-D-xylo-4-hexulose]

time after which renewed inactivation of the epimerase is observed (UDP-glucose 4'-epimerase [2]): 32 h
activation of the epimerase (in words) (UDP-glucose 4'-epimerase [2]; [7]): rapid and long-lasting activation
SMILES: C[C@H]1O[C@H](OP(=O)(O)OP(=O)(O)OC[C@H]2O[C@@H](n3ccc(=O)[nH]c3=O)C[C@@H]2O)[C@H](O)[C@@H](O)C1=O [dUDP-6-deoxy-D-xylo-4-hexulose]
reactivation of the epimerase (in words) (UDP-glucose 4'-epimerase [2]): can be used to reactivate; also recorded: successfully employed to reactivate the epimerase
activation of the epimerase (in words) (UDP-glucose 4'-epimerase [2]; 1 mM activator, activity monitored over […]): rapid activation of the epimerase, with the activation being stable over the period of observation

activity at 50000 µM (UDP-glucose 4'-epimerase [1]; [5]): 86.1%
activity at 50000 µM (UDP-glucose 4'-epimerase [1]; 8 h, acceptor 50 mM, buffer P pH 7.2 containing 0.1 mM UMP, read-out: Rel. activity of the epimerase, incubation time 8h): 29.3%
Rel. activity of the epimerase, incubation time 7h (UDP-glucose 4'-epimerase [1]; [6]): 75.6
inactivation of the epimerase (in words) (UDP-glucose 4'-epimerase [1]): inactivated
SMILES: CCCCCCCCOC1O[C@H](CO)[C@@H](O)[C@H](O)[C@H]1O (stereo partly shown) [n-Octylglucopyranoside, n-octylglucopyranoside]

inactivation of the epimerase (in words) (UDP-glucose 4'-epimerase [3]): inactivated
SMILES: OC[C@H]1O[C@@](CO)(O[C@H]2O[C@H](CO)[C@@H](O)[C@H](O)[C@H]2O)[C@@H](O)[C@@H]1O [sucrose]
